2 compounds from ChEMBL document CHEMBL4052761, “20(R)-Ginsenoside Rg3 protects SH-SY5Y cells against apoptosis induced by oxygen and glucose deprivation/reperfusion” (2017) can be followed below.

The test system of assay [1] is SH-SY5Y. Nature of the assay: Cytoprotection against oxygen-glucose deprivation/reperfusion-induced cell death in human SH-SY5Y cells assessed as late apoptotic cells pretreated for 24 hrs followed by oxygen-glucose deprivation for 10 hrs and reperfusion for 24 hrs by annexin V-FITC-propidium iodide staining-based flow cytometry method (reference value: 10.5%). The format is functional.

Assay [2] relates to SH-SY5Y. Nature of the assay: Cytoprotection against oxygen-glucose deprivation/reperfusion-induced cell death in human SH-SY5Y cells assessed as necrotic cells at 1 umol/L pretreated for 24 hrs followed by oxygen-glucose deprivation for 10 hrs and reperfusion for 24 hrs by annexin V-FITC-propidium iodide staining-based flow cytometry method (reference value: 2.3%). The format is functional. In general terms: A flow cytometer gives signals particle by particle.

The test system of assay [3] is SH-SY5Y. Kind of assay: Cytoprotection against oxygen-glucose deprivation/reperfusion-induced cell death in human SH-SY5Y cells assessed as viable cells at 5 umol/L pretreated for 24 hrs followed by oxygen-glucose deprivation for 10 hrs and reperfusion for 24 hrs by annexin V-FITC-propidium iodide staining-based flow cytometry method (reference value: 63.2%). Type of assay: functional. The settings on record: read-out: Activity.

The subject of assay [4] is SH-SY5Y. Kind of assay: Cytoprotection against oxygen-glucose deprivation/reperfusion-induced cell death in human SH-SY5Y cells assessed as increase in cell viability at 25 to 125 umol/L pretreated for 24 hrs followed by oxygen-glucose deprivation for 10 hrs and reperfusion for 24 hrs by MTT assay. Type of assay: functional, cell-based. On the technique in general: Formazan colour is commonly taken as a measure of viable cells.

The subject of assay [5] is SH-SY5Y. Nature of the assay: Cytoprotection against oxygen-glucose deprivation/reperfusion-induced cell death in human SH-SY5Y cells assessed as early apoptotic cells at 125 umol/L pretreated for 24 hrs followed by oxygen-glucose deprivation for 10 hrs and reperfusion for 24 hrs by annexin V-FITC-propidium iodide staining-based flow cytometry method (reference value: 24.0%). The format is functional.

The test system of assay [6] is SH-SY5Y. Kind of assay: Cytoprotection against oxygen-glucose deprivation/reperfusion-induced cell death in human SH-SY5Y cells assessed as increase in Bcl2 m-RNA expression at 125 umol/L pretreated for 24 hrs followed by oxygen-glucose deprivation for 10 hrs and reperfusion for 24 hrs by RT-qPCR analysis. Type of assay: functional, cell-based.
Assay [7] deals with SH-SY5Y. Nature of the assay: Cytoprotection against oxygen-glucose deprivation/reperfusion-induced cell death in human SH-SY5Y cells assessed as reduction in LDH leakage at 1 to 5 umol/L pretreated for 24 hrs followed by oxygen-glucose deprivation for 10 hrs and reperfusion for 24 hrs. Type of assay: functional, cell-based. A general note: LDH in the medium is a marker of cell lysis.

Assay [8] relates to SH-SY5Y. Kind of assay: Cytoprotection against oxygen-glucose deprivation/reperfusion-induced cell death in human SH-SY5Y cells assessed as decrease in cleaved caspase-3 level at 25 to 125 umol/L pretreated for 24 hrs followed by oxygen-glucose deprivation for 10 hrs and reperfusion for 24 hrs by Western blot analysis. Type of assay: functional, cell-based.
Assay [9] has as its system SH-SY5Y. Kind of assay: Cytoprotection against oxygen-glucose deprivation/reperfusion-induced cell death in human SH-SY5Y cells assessed as viable cells at 25 umol/L pretreated for 24 hrs followed by oxygen-glucose deprivation for 10 hrs and reperfusion for 24 hrs by annexin V-FITC-propidium iodide staining-based flow cytometry method (reference value: 63.2%). Particulars: read-out: Activity. Type of assay: functional.

The subject of assay [10] is SH-SY5Y. Nature of the assay: Cytoprotection against oxygen-glucose deprivation/reperfusion-induced cell death in human SH-SY5Y cells assessed as late apoptotic cells at 5 umol/L pretreated for 24 hrs followed by oxygen-glucose deprivation for 10 hrs and reperfusion for 24 hrs by annexin V-FITC-propidium iodide staining-based flow cytometry method (reference value: 10.5%). The format is functional.

For assay [11], the system named is SH-SY5Y. Kind of assay: Cytoprotection against oxygen-glucose deprivation/reperfusion-induced cell death in human SH-SY5Y cells assessed as decrease in Bax protein level at 5 to 125 umol/L pretreated for 24 hrs followed by oxygen-glucose deprivation for 10 hrs and reperfusion for 24 hrs by Western blot analysis. Type of assay: functional, cell-based.
For assay [12], the system named is SH-SY5Y. Nature of the assay: Cytoprotection against oxygen-glucose deprivation/reperfusion-induced cell death in human SH-SY5Y cells assessed as decrease in Bax m-RNA expression pretreated for 24 hrs followed by oxygen-glucose deprivation for 10 hrs and reperfusion for 24 hrs by RT-qPCR analysis. Type of assay: functional, cell-based.
The subject of assay [13] is SH-SY5Y. Nature of the assay: Cytoprotection against oxygen-glucose deprivation/reperfusion-induced cell death in human SH-SY5Y cells assessed as late apoptotic cells at 25 umol/L pretreated for 24 hrs followed by oxygen-glucose deprivation for 10 hrs and reperfusion for 24 hrs by annexin V-FITC-propidium iodide staining-based flow cytometry method (reference value: 10.5%). The format is functional.

Assay [14] relates to SH-SY5Y. Kind of assay: Cytoprotection against oxygen-glucose deprivation/reperfusion-induced cell death in human SH-SY5Y cells assessed as reduction in LDH leakage at 25 to 125 umol/L pretreated for 24 hrs followed by oxygen-glucose deprivation for 10 hrs and reperfusion for 24 hrs. Type of assay: functional, cell-based.
Assay [15] deals with SH-SY5Y. Nature of the assay: Cytoprotection against oxygen-glucose deprivation/reperfusion-induced cell death in human SH-SY5Y cells assessed as late apoptotic cells at 125 umol/L pretreated for 24 hrs followed by oxygen-glucose deprivation for 10 hrs and reperfusion for 24 hrs by annexin V-FITC-propidium iodide staining-based flow cytometry method (reference value: 10.5%). Type of assay: functional.

For assay [16], the system named is SH-SY5Y. Nature of the assay: Cytoprotection against oxygen-glucose deprivation/reperfusion-induced cell death in human SH-SY5Y cells assessed as early apoptotic cells at 1 umol/L pretreated for 24 hrs followed by oxygen-glucose deprivation for 10 hrs and reperfusion for 24 hrs by annexin V-FITC-propidium iodide staining-based flow cytometry method (reference value: 24.0%). Type of assay: functional.

Assay [17] deals with SH-SY5Y. Kind of assay: Cytoprotection against oxygen-glucose deprivation/reperfusion-induced cell death in human SH-SY5Y cells assessed as late apoptotic cells at 1 umol/L pretreated for 24 hrs followed by oxygen-glucose deprivation for 10 hrs and reperfusion for 24 hrs by annexin V-FITC-propidium iodide staining-based flow cytometry method (reference value: 10.5%). Type of assay: functional.

The subject of assay [18] is SH-SY5Y. Nature of the assay: Cytoprotection against oxygen-glucose deprivation/reperfusion-induced cell death in human SH-SY5Y cells assessed as necrotic cells at 25 umol/L pretreated for 24 hrs followed by oxygen-glucose deprivation for 10 hrs and reperfusion for 24 hrs by annexin V-FITC-propidium iodide staining-based flow cytometry method (reference value: 2.3%). Type of assay: functional.

Assay [19] deals with SH-SY5Y. Kind of assay: Cytoprotection against oxygen-glucose deprivation/reperfusion-induced cell death in human SH-SY5Y cells assessed as early apoptotic cells pretreated for 24 hrs followed by oxygen-glucose deprivation for 10 hrs and reperfusion for 24 hrs by annexin V-FITC-propidium iodide staining-based flow cytometry method (reference value: 24.0%). The format is functional.

Assay [20] relates to SH-SY5Y. Nature of the assay: Cytoprotection against oxygen-glucose deprivation/reperfusion-induced cell death in human SH-SY5Y cells assessed as increase in Bcl-2 protein level at 5 to 125 umol/L pretreated for 24 hrs followed by oxygen-glucose deprivation for 10 hrs and reperfusion for 24 hrs by Western blot analysis. The format is functional, cell-based.
The subject of assay [21] is SH-SY5Y. Kind of assay: Cytoprotection against oxygen-glucose deprivation/reperfusion-induced cell death in human SH-SY5Y cells assessed as necrotic cells at 5 umol/L pretreated for 24 hrs followed by oxygen-glucose deprivation for 10 hrs and reperfusion for 24 hrs by annexin V-FITC-propidium iodide staining-based flow cytometry method (reference value: 2.3%). Type of assay: functional.

Assay [22] deals with SH-SY5Y. Nature of the assay: Cytoprotection against oxygen-glucose deprivation/reperfusion-induced cell death in human SH-SY5Y cells assessed as decrease in Bax m-RNA expression at 125 umol/L pretreated for 24 hrs followed by oxygen-glucose deprivation for 10 hrs and reperfusion for 24 hrs by RT-qPCR analysis. Type of assay: functional, cell-based.
For assay [23], the system named is SH-SY5Y. Kind of assay: Cytoprotection against oxygen-glucose deprivation/reperfusion-induced cell death in human SH-SY5Y cells assessed as viable cells at 125 umol/L pretreated for 24 hrs followed by oxygen-glucose deprivation for 10 hrs and reperfusion for 24 hrs by annexin V-FITC-propidium iodide staining-based flow cytometry method (reference value: 63.2%). Type of assay: functional. Particulars: read-out: Activity.

The test system of assay [24] is SH-SY5Y. Kind of assay: Cytoprotection against oxygen-glucose deprivation/reperfusion-induced cell death in human SH-SY5Y cells assessed as early apoptotic cells at 5 umol/L pretreated for 24 hrs followed by oxygen-glucose deprivation for 10 hrs and reperfusion for 24 hrs by annexin V-FITC-propidium iodide staining-based flow cytometry method (reference value: 24.0%). Type of assay: functional.

Assay [25] has as its system SH-SY5Y. Nature of the assay: Cytoprotection against oxygen-glucose deprivation/reperfusion-induced cell death in human SH-SY5Y cells assessed as increase in Bcl2 m-RNA expression pretreated for 24 hrs followed by oxygen-glucose deprivation for 10 hrs and reperfusion for 24 hrs by RT-qPCR analysis. The format is functional, cell-based.
Assay [26] deals with SH-SY5Y. Nature of the assay: Cytoprotection against oxygen-glucose deprivation/reperfusion-induced cell death in human SH-SY5Y cells assessed as necrotic cells pretreated for 24 hrs followed by oxygen-glucose deprivation for 10 hrs and reperfusion for 24 hrs by annexin V-FITC-propidium iodide staining-based flow cytometry method (reference value: 2.3%). The format is functional.

The subject of assay [27] is SH-SY5Y. Kind of assay: Cytoprotection against oxygen-glucose deprivation/reperfusion-induced cell death in human SH-SY5Y cells assessed as viable cells at 1 umol/L pretreated for 24 hrs followed by oxygen-glucose deprivation for 10 hrs and reperfusion for 24 hrs by annexin V-FITC-propidium iodide staining-based flow cytometry method (reference value: 63.2%). Type of assay: functional. Particulars: read-out: Activity.

In assay [28] the test system is SH-SY5Y. Kind of assay: Cytoprotection against oxygen-glucose deprivation/reperfusion-induced cell death in human SH-SY5Y cells assessed as early apoptotic cells at 25 umol/L pretreated for 24 hrs followed by oxygen-glucose deprivation for 10 hrs and reperfusion for 24 hrs by annexin V-FITC-propidium iodide staining-based flow cytometry method (reference value: 24.0%). Type of assay: functional.

Assay [29] relates to SH-SY5Y. Kind of assay: Cytoprotection against oxygen-glucose deprivation/reperfusion-induced cell death in human SH-SY5Y cells assessed as necrotic cells at 125 umol/L pretreated for 24 hrs followed by oxygen-glucose deprivation for 10 hrs and reperfusion for 24 hrs by annexin V-FITC-propidium iodide staining-based flow cytometry method (reference value: 2.3%). The format is functional.

Assay [30] deals with SH-SY5Y. Kind of assay: Cytoprotection against oxygen-glucose deprivation/reperfusion-induced cell death in human SH-SY5Y cells assessed as viable cells pretreated for 24 hrs followed by oxygen-glucose deprivation for 10 hrs and reperfusion for 24 hrs by annexin V-FITC-propidium iodide staining-based flow cytometry method (reference value: 63.2%). Type of assay: functional.

The test system of assay [31] is SH-SY5Y. Nature of the assay: Cytoprotection against oxygen-glucose deprivation/reperfusion-induced cell death in human SH-SY5Y cells assessed as increase in Bcl2 m-RNA expression at 100 umol/L pretreated for 24 hrs followed by oxygen-glucose deprivation for 10 hrs and reperfusion for 24 hrs by RT-qPCR analysis. Type of assay: functional, cell-based.
For assay [32], the system named is SH-SY5Y. Nature of the assay: Cytoprotection against oxygen-glucose deprivation/reperfusion-induced cell death in human SH-SY5Y cells assessed as decrease in Bax m-RNA expression at 100 umol/L pretreated for 24 hrs followed by oxygen-glucose deprivation for 10 hrs and reperfusion for 24 hrs by RT-qPCR analysis. Type of assay: functional, cell-based.
Assay [33] deals with SH-SY5Y. Nature of the assay: Cytoprotection against oxygen-glucose deprivation/reperfusion-induced cell death in human SH-SY5Y cells assessed as reduction in LDH leakage at 100 umol/L pretreated for 24 hrs followed by oxygen-glucose deprivation for 10 hrs and reperfusion for 24 hrs. The format is functional, cell-based.
Assay [34] deals with SH-SY5Y. Kind of assay: Cytoprotection against oxygen-glucose deprivation/reperfusion-induced cell death in human SH-SY5Y cells assessed as increase in cell viability at 100 umol/L pretreated for 24 hrs followed by oxygen-glucose deprivation for 10 hrs and reperfusion for 24 hrs by MTT assay. The format is functional, cell-based.
For assay [35], the system named is SH-SY5Y. Nature of the assay: Cytoprotection against oxygen-glucose deprivation/reperfusion-induced cell death in human SH-SY5Y cells assessed as decrease in cleaved caspase-3 level at 100 umol/L pretreated for 24 hrs followed by oxygen-glucose deprivation for 10 hrs and reperfusion for 24 hrs by Western blot analysis. Type of assay: functional, cell-based.

Calls of active or inactive are those of the source. The calls are words filed in the database; no cut-off is given here.

Regarding `CC(C)=CCC[C@](C)(O)[C@H]1CC[C@]2(C)[C@@H]1[C@H](O)C[C@@H]1[C@@]3(C)CC[C@H](O[C@@H]4O[C@H](CO)[C@@H](O)[C@H](O)[C@H]4O[C@@H]4O[C@H](CO)[C@@H](O)[C@H](O)[C@H]4O)C(C)(C)[C@@H]3CC[C@]12C`, the Activity was 2.8% in [1]; 2.7% in assay [2]; 5% in [5]; 11.3% in assay [10]; “Dose-dependent effect” in assay [12]; 5.7% in assay [13]. Moreover, the Activity in assay [15] is listed as 4.8%; in [16], 17%; in assay [17] it was 10.3%; in assay [18], 8.9%; in assay [19], 8%; in assay [21] it was 5.8%. Also, the Activity is 13% in assay [24]; “Dose-dependent effect” in assay [25]; 8.9% in assay [26]; 7.9% in [28]; 9.8% in assay [29]; 80.4% in assay [30]. For the same compound, the viability at 5 µM in assay [3] is 70%. Besides, the result in assay [4], in assay [6], in [8], in assay [11], in assay [14] and in [20] was Active. Further, the outcome in assay [22] was Active. Also, the result in assay [7] was inactive. Further, the viability at 25 µM in assay [9] came to 77.5%. For the same compound, the viability at 125 µM in [23] turned out to be 80.4%. Also, the viability at 1 µM in [27] came out at 69.9%.

In the case of `COCCOC(=O)C1=C(C)NC(C)=C(C(=O)OC(C)C)C1c1cccc([N+](=O)[O-])c1` (stereo not given), the result in assay [31], in assay [32], in assay [33], in assay [34] and in assay [35] was Active.
